# Measured values from patent US4610879A (priority 1984, dated 1986).
# Key:
# [1] = biological target: fibrinolytic enzyme from Southern Copperhead venom (Agkistrodon contortrix contortrix, UniProt P28891); experiment: biochemical; type: biochemical, Southern Copperhead snake (A.c. contortrix)
# human plasma clot = experiment: Plasma clot lysis, human plasma; type: biochemical; details: plasmin 1.08 caseinolytic units per milliliter, after twenty-four hours
# rabbit plasma clot = experiment: Plasma clot lysis, rabbit plasma; type: biochemical; details: plasmin 1.08 caseinolytic units per milliliter, after twenty-four hours
# fibrin clots = experiment: Preliminary in vitro evaluation against fibrin clots in plasma; type: biochemical; details: 0.1 mgm purified venom enzyme, or plasmin
# azocasein = details: pure plasmin, for comparison; cited from earlier work
# [2] = test system: purified human plasminogen; experiment: Plasminogen activation measured by S-2251 hydrolysis; type: biochemical; details: aliquots of the venom enzyme-plasminogen mixture treated with streptokinase
# [3] = test system: autologous or human clots; experiment: Streptokinase regimens in animal clot models; type: in vivo, dogs, pigs, and rabbits; details: increasing the rate of streptokinase infusion
# fibrinolytic enzyme from Southern Copperhead venom, sequence (P28891 whole entry, looked up): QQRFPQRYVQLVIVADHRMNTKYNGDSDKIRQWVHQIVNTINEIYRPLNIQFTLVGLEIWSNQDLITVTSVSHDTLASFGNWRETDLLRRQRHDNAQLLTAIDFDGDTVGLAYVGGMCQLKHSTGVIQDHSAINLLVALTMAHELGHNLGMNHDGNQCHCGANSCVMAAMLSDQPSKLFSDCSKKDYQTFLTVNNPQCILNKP
compound,measurement,setting,value
O=C(O)CN(CCN(CC(=O)O)CC(=O)O)CC(=O)O [EDTA],Inhibition of the venom fibrinolytic enzyme (in words),[1],inhibited
same,inhibition at 50000 µM,[1]; read-out: Inhibition of Azocaseinolytic Activity,92%
c1cnc2c(c1)ccc1cccnc12 [o-phenanthroline],Inhibition of the venom fibrinolytic enzyme (in words),[1],inhibited
O=C(O)c1cc[c]([Hg][Cl])cc1 [p-Chloromercuribenzoate],Inhibition of the venom fibrinolytic enzyme (in words),[1],not inhibited
plasmin,Plasma clot lysis,human plasma clot,did not lyse
same,Plasma clot lysis,rabbit plasma clot,did not lyse
same,Fibrin clot lysis in plasma clotted with thrombin,fibrin clots,no fibrin clot lysis
same,Plasmin activity,azocasein,30-35 units per mg
streptokinase,S-2251 hydrolyzing activity (plasmin formed),[2],hydrolyzing activity was generated
same,Acceleration of clot lysis,[3],ineffective in significantly accelerating clot lysis
α2 -Macroglobulin,Inhibition of Azocaseinolytic Activity,[1],95%
same,Inhibition of the venom fibrinolytic enzyme (in words),[1],inhibits
